In US20230233569A1 (Revolution Medicines, Inc., priority 2020, published 2023):
“And” between values parts separate entries of the source, which are not always exact repeats. Identical values can stand only once. Like-named read-outs stand apart in the source and are kept apart here.

Legend:
KRAS G12D = KRAS G12D (Homo sapiens, UniProt P01116+P62937, G12D); test: Disruption of BRAF RBD interaction with Ras (FRET / MOA assay, with Cyclophilin A); assay type: biochemical
In short: (§1)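 Biochemical TR-FRET disruption assay: nucleotide-loaded K-Ras with Cyclophilin A and a BRAF RBD construct, compound titrated over 10 points from 30 μM (final).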

KRAS G12S = KRAS G12S (Homo sapiens, UniProt P01116+P62937, G12S); test: as above; assay type: biochemical
Sequence of KRAS G12S (P01116 1-169 isoform P01116-2 G12S limits assumed): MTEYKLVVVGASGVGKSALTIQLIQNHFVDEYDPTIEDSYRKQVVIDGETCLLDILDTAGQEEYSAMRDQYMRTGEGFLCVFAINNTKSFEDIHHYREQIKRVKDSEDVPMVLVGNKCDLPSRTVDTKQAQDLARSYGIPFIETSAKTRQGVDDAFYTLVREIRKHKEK
Sequence of KRAS G12S (P62937 whole entry): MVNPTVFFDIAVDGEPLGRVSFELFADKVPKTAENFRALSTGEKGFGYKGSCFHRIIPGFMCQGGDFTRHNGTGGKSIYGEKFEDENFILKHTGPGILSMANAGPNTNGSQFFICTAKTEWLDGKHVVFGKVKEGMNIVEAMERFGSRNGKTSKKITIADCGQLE
In short: as §1

NRAS G12C = NRAS G12C (Homo sapiens, UniProt P01111+P62937, G12C); test: as above; assay type: biochemical
Sequence of NRAS G12C (P01111 whole entry G12C): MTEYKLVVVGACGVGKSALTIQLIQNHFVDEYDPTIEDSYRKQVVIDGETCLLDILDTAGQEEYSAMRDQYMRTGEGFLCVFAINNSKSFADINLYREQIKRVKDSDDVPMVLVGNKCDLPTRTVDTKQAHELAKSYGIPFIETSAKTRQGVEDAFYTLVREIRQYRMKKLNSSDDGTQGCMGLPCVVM
Sequence of NRAS G12C (P62937 whole entry): as the sequence (P62937 whole entry) above

KRAS G12C = KRAS G12C (Homo sapiens, UniProt P01116+P62937, G12C); test: as above; assay type: biochemical
Sequence of KRAS G12C (P01116 1-169 isoform P01116-2 G12C): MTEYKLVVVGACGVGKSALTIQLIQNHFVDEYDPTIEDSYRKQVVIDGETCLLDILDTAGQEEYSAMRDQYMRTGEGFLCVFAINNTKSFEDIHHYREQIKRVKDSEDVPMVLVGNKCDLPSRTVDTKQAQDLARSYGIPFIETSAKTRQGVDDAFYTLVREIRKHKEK
Sequence of KRAS G12C (P62937 whole entry): as the sequence (P62937 whole entry) above
In short: as §1

KRAS G12V = KRAS G12V (Homo sapiens, UniProt P01116+P62937, G12V); test: as above; assay type: biochemical
Sequence of KRAS G12V (P01116 1-169 isoform P01116-2 G12V limits assumed): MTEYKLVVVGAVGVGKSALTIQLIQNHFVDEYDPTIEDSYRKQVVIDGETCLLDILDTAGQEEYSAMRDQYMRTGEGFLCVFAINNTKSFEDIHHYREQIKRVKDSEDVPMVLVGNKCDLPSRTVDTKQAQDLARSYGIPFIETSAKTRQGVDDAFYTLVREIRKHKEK
Sequence of KRAS G12V (P62937 whole entry): as the sequence (P62937 whole entry) above
In short: as §1

KRAS G13C = KRAS G13C (Homo sapiens, UniProt P01116+P62937, G13C); test: as above; assay type: biochemical
Sequence of KRAS G13C (P01116 1-169 isoform P01116-2 G13C): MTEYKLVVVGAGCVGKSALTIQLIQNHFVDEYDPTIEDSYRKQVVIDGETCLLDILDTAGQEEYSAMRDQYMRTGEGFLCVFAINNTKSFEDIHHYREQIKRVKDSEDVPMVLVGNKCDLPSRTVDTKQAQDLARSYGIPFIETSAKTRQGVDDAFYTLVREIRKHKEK
Sequence of KRAS G13C (P62937 whole entry): as the sequence (P62937 whole entry) above
In short: as §1

KRAS G13D = KRAS G13D (Homo sapiens, UniProt P01116+P62937, G13D); test: as above; assay type: biochemical
Sequence of KRAS G13D (P01116 1-169 isoform P01116-2 G13D limits assumed): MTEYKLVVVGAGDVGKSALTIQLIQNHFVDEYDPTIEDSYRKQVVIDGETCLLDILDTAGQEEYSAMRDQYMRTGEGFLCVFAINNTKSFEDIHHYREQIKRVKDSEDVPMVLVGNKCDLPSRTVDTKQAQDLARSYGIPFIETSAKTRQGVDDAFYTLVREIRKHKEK
Sequence of KRAS G13D (P62937 whole entry): as the sequence (P62937 whole entry) above
In short: as §1

KRAS WT = KRAS WT (Homo sapiens, UniProt P01116+P62937); test: as above; assay type: biochemical
Sequence of KRAS WT (P01116 1-169 isoform P01116-2 limits assumed): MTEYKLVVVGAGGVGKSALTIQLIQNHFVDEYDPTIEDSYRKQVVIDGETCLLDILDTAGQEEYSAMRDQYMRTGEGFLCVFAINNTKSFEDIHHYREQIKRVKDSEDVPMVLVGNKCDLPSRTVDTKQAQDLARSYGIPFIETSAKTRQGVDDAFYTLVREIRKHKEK
Sequence of KRAS WT (P62937 whole entry): as the sequence (P62937 whole entry) above
In short: as §1

NCI-H358 (K-Ras G12C) = test: CellTiter-Glo cell viability assay, 5-day treatment; assay type: cell-based; details: Homo sapiens, NCI-H358, 120 h, 5-day treatment; read-out: H358 Cell Viability assay data (K-Ras G12C, IC50)
In short: (§2)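 Five-day compound treatment of plated cells; luminescent read after ~30 min at RT. Percent-of-DMSO data fit to a four-parameter logistic model.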

Capan-1 (K-Ras G12V) = test: as above; assay type: cell-based; details: Homo sapiens, CAPAN-1, 120 h, 5-day treatment; read-out: Capan-1 Cell Viability assay data (K-Ras G12V, IC50)
In short: as §2

[1] = read-out: KRAS G12D FRET data, IC50
[2] = read-out: KRAS G12S FRET data, IC50
[3] = NRAS G12C, read-out: NRAS G12C FRET data IC50
[4] = read-out: KRAS G12C FRET data, IC50
[5] = KRAS G12V, read-out: KRAS G12V FRET data IC50
[6] = read-out: KRAS G13C FRET data, IC50
[7] = KRAS G13D, read-out: KRAS G13D FRET data IC50
[8] = KRAS WT, read-out: KRAS WT FRET data IC50

Sequence of KRAS G12D (P01116 1-169 isoform P01116-2 G12D limits assumed): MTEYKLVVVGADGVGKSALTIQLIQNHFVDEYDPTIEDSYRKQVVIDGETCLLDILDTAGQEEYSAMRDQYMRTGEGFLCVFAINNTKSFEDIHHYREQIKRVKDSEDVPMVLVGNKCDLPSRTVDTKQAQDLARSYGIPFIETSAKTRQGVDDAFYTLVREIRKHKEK
Sequence of KRAS G12D (P62937 whole entry): as the sequence (P62937 whole entry) above

SMILES | IC50 (KRAS G12D; [1]) | IC50 (KRAS G12S; [2]) | IC50 (NRAS G12C; [3]) | IC50 (KRAS G12C; [4]) | IC50 (KRAS G12V; [5]) | IC50 (KRAS G13C; [6]) | IC50 (KRAS G13D; [7]) | IC50 (KRAS WT; [8]) | IC50 (NCI-H358 (K-Ras G12C)) | IC50 (Capan-1 (K-Ras G12V)) | IC50 (KRAS G12D; KRAS G12D FRET data, IC50) | IC50 (KRAS G12S; KRAS G12S FRET data, IC50) | IC50 (NRAS G12C; NRAS G12C FRET data IC50, NRAS G12C) | IC50 (KRAS G12C; KRAS G12C FRET data, IC50) | IC50 (KRAS G12V; KRAS G12V FRET data IC50, KRAS G12V) | IC50 (KRAS G13C; KRAS G13C FRET data, IC50) | IC50 (KRAS G13D; KRAS G13D FRET data IC50, KRAS G13D) | IC50 (KRAS WT; KRAS WT FRET data IC50, KRAS WT)
CCn1c(-c2cccnc2[C@H](C)OC)c2c3cc(ccc31)-c1cc(O)cc(c1)C[C@H](NC(=O)[C@H](C(C)C)N(C)C(=O)C13CNCC1C3)C(=O)N1CCC[C@H](N1)C(=O)OCC(C)(C)C2 (stereo partly drawn) [Example A155] | 100 to 1000 nM | 100 to 1000 nM | 100 to 1000 nM | 10 to 100 nM | 100 to 1000 nM | 10 to 100 nM | 10 to 100 nM | 10 to 100 nM | 100 to 1000 nM | 1000 to 10000 nM |  |  |  |  |  |  |  | 
CCn1c(-c2cccnc2[C@H](C)OC)c2c3cc(ccc31)-c1cc(O)cc(c1)C[C@H](NC(=O)[C@H](C(C)C)N(C)C(=O)[C@@H]1CC1(F)F)C(=O)N1CCC[C@H](N1)C(=O)OCC(C)(C)C2 [Example A167] |  |  |  |  |  |  |  |  | 100 to 1000 nM | 100 to 1000 nM | 100 to 1000 nM | 100 to 1000 nM | 100 to 1000 nM | 100 to 1000 nM | 100 to 1000 nM | 100 to 1000 nM | 100 to 1000 nM | 100 to 1000 nM
CCn1c(-c2cccnc2[C@H](C)OC)c2c3cc(ccc31)-c1cc(O)cc(c1)C[C@H](NC(=O)[C@H](C(C)C)N(C)C(=O)C1(N)CC1)C(=O)N1CCC[C@H](N1)C(=O)OCC(C)(C)C2 [Example A168] | 100 to 1000 nM | 100 to 1000 nM | 10 to 100 nM | 10 to 100 nM | 100 to 1000 nM | 10 to 100 nM | 100 to 1000 nM | 10 to 100 nM | 100 to 1000 nM | 100 to 1000 nM |  |  |  |  |  |  |  | 
CCn1c(-c2cccnc2[C@H](C)OC)c2c3cc(ccc31)-c1cc(O)cc(c1)C[C@H](NC(=O)C(C1CC1)C1CC1)C(=O)N1CCC[C@H](N1)C(=O)OCC(C)(C)C2 [Example A184] | 1000 to 10000 nM | 100 to 1000 nM | 100 to 1000 nM | 100 to 1000 nM | 100 to 1000 nM | 10 to 100 nM | 100 to 1000 nM | 100 to 1000 nM | 100 to 1000 nM | 1000 to 10000 nM |  |  |  |  |  |  |  | 
CCn1c(-c2cccnc2[C@H](C)OC)c2c3cc(ccc31)-c1cc(O)cc(c1)C[C@H](NC(=O)[C@H](C(C)C)N(C)C(=O)O[C@H]1CCOC1)C(=O)N1CCC[C@H](N1)C(=O)OCC(C)(C)C2 [Example A209] | 100 to 1000 nM | 100 to 1000 nM | 100 to 1000 nM | 100 to 1000 nM | 100 to 1000 nM | 100 to 1000 nM | 100 to 1000 nM | 100 to 1000 nM | 100 to 1000 nM | 100 to 1000 nM |  |  |  |  |  |  |  | 

More lines, main results first:

IC50 (KRAS G12D; [1]) | IC50 (KRAS G12S; [2]) | IC50 (NRAS G12C; [3]) | IC50 (KRAS G12C; [4]) | IC50 (KRAS G12V; [5]) | IC50 (KRAS G13C; [6]) | IC50 (KRAS G13D; [7]) | IC50 (KRAS WT; [8]) | IC50 (NCI-H358 (K-Ras G12C)) | SMILES | IC50 (Capan-1 (K-Ras G12V)) | IC50 (KRAS G12D; KRAS G12D FRET data, IC50) | IC50 (KRAS G12S; KRAS G12S FRET data, IC50) | IC50 (NRAS G12C; NRAS G12C FRET data IC50, NRAS G12C) | IC50 (KRAS G12C; KRAS G12C FRET data, IC50) | IC50 (KRAS G12V; KRAS G12V FRET data IC50, KRAS G12V) | IC50 (KRAS G13C; KRAS G13C FRET data, IC50) | IC50 (KRAS G13D; KRAS G13D FRET data IC50, KRAS G13D) | IC50 (KRAS WT; KRAS WT FRET data IC50, KRAS WT)
100 to 1000 nM | 10 to 100 nM | 10 to 100 nM | 10 to 100 nM | 10 to 100 nM | 10 to 100 nM | 100 to 1000 nM | 10 to 100 nM | 10 to 100 nM | CCn1c(-c2cccnc2[C@H](C)OC)c2c3cc(ccc31)-c1cc(O)cc(c1)C[C@H](NC(=O)[C@H](C(C)C)N(C)C(=O)C1CC13CC3)C(=O)N1CCC[C@H](N1)C(=O)OCC(C)(C)C2 (stereo partly drawn) [Example A156] | 10 to 100 nM |  |  |  |  |  |  |  | 
100 to 1000 nM | 100 to 1000 nM | 10 to 100 nM | 10 to 100 nM | 100 to 1000 nM | 100 to 1000 nM | 100 to 1000 nM | 10 to 100 nM | 100 to 1000 nM | CCn1c(-c2cccnc2[C@H](C)OC)c2c3cc(ccc31)-c1cc(O)cc(c1)C[C@H](NC(=O)[C@H](C(C)C)N(C)C(=O)[C@@H]1CC1(C)C)C(=O)N1CCC[C@H](N1)C(=O)OCC(C)(C)C2 [Example A157] | 100 to 1000 nM |  |  |  |  |  |  |  | 
100 to 1000 nM | 100 to 1000 nM | 10 to 100 nM | 10 to 100 nM | 100 to 1000 nM | 10 to 100 nM | 100 to 1000 nM | 10 to 100 nM | 100 to 1000 nM | CCn1c(-c2cccnc2[C@H](C)OC)c2c3cc(ccc31)-c1cc(O)cc(c1)C[C@H](NC(=O)[C@H](C(C)C)N(C)C(=O)[C@H]1CC1(F)F)C(=O)N1CCC[C@H](N1)C(=O)OCC(C)(C)C2 [Example A166] | 100 to 1000 nM |  |  |  |  |  |  |  | 
100 to 1000 nM | 100 to 1000 nM | 100 to 1000 nM | 100 to 1000 nM | 100 to 1000 nM | 10 to 100 nM | 100 to 1000 nM | 100 to 1000 nM | 100 to 1000 nM | CCn1c(-c2cccnc2[C@H](C)OC)c2c3cc(ccc31)-c1cc(O)cc(c1)C[C@H](NC(=O)[C@H](C(C)C)N(C)C(=O)N1CC(N(C)C)C1)C(=O)N1CCC[C@H](N1)C(=O)OCC(C)(C)C2 [Example A171] | 100 to 1000 nM |  |  |  |  |  |  |  | 
100 to 1000 nM and 10 to 100 nM | 100 to 1000 nM and 10 to 100 nM | 100 to 1000 nM | 100 to 1000 nM and 10 to 100 nM | 100 to 1000 nM and 1000 to 10000 nM | 10 to 100 nM | 10 to 100 nM | 100 to 1000 nM and 10 to 100 nM | 1000 to 10000 nM | CCn1c(-c2cccnc2[C@H](C)OC)c2c3cc(ccc31)-c1cc(O)cc(c1)C[C@H](NC(=O)[C@H](C(C)C)N(C)C(=O)C1NCCC1C(C)C)C(=O)N1CCC[C@H](N1)C(=O)OCC(C)(C)C2 (stereo partly drawn) [Example A227] | > 10000 nM |  |  |  |  |  |  |  | 
10 to 100 nM | 10 to 100 nM | 10 to 100 nM | 10 to 100 nM | 100 to 1000 nM | 10 to 100 nM | 10 to 100 nM | 10 to 100 nM | 100 to 1000 nM | CCn1c(-c2cccnc2[C@H](C)OC)c2c3cc(ccc31)-c1cc(O)cc(c1)C[C@H](NC(=O)[C@H](C(C)C)N(C)C(=O)C1NCCC13CC3)C(=O)N1CCC[C@H](N1)C(=O)OCC(C)(C)C2 (stereo partly drawn) [Example A228] | 100 to 1000 nM |  |  |  |  |  |  |  | 
100 to 1000 nM | 100 to 1000 nM | 100 to 1000 nM | 100 to 1000 nM | 100 to 1000 nM | 100 to 1000 nM | 100 to 1000 nM | 100 to 1000 nM | 100 to 1000 nM | CCn1c(-c2cccnc2[C@H](C)OC)c2c3cc(ccc31)-c1cc(O)cc(c1)C[C@H](NC(=O)[C@H](C(C)C)N(C)C(=O)C1(CO)CC1)C(=O)N1CCC[C@H](N1)C(=O)OCC(C)(C)C2 [Example A232] | 100 to 1000 nM |  |  |  |  |  |  |  | 
